Results: patent USH1168H, “Inhibitors of protein kinase C activity as protectors against septic shock and reducers of ARDS” (priority 1991, dated 1993)
Entries after “also recorded” stand apart in the source; their conditions may differ.

Tests used:
[1] = tested on: intact endothelium rat aortic rings; test: NE-induced contraction of intact rat aortic rings after 16 h incubation with LPS and/or PKC inhibitors; assay type: cell-based; conditions: for EC50: Rattus norvegicus, 16 h, intact endothelium, read-out: EC50 value for NE stimulated contraction (EC50 of the agonist NE)
Procedure: FIG. 1 is a graph showing contraction to cumulative doses of NE by rat aortic rings incubated for 16 hr in combinations of control, LPS (endotoxin or lipopolysaccharide), H7, and N-(2-guanidinoethyl)-5-isoquinolinesulfonamide (HA1004; a negative control for H7) treated media. (Panel A) Responses by rings incubated in medium only (open circles), medium plus H7 (25 μM, closed circles), medium containing LPS (10 ng/ml, open triangles), and medium containing LPS plus H7 (closed triangles). (Panel B) For clarity in presentation, responses by rings incubated in medium only (open circles) and LPS treated medium (open triangles) are reproduced from Panel A. Additional rings were incubated in medium plus HA1004 (25 μM, closed circles), and medium containing LPS plus HA1004 (closed triangles). Six rings were prepared from each rat and one ring allocated into each medium formulation. […] The curves are the best fit of the data by nonlinear least squares to a polynomial model. N=8 rats.
(§1) Tissue preparation and incubation. Male Sprague-Dawley rats (250-350 g, Taconic Farms, Germantown, N.Y.) were used. Rat thoracic aortic rings were prepared and incubated as detailed by McKenna (14). In brief, 4 or 6 rings were prepared from each rat. Care was taken during dissection to maintain the patency of the endothelium. Some aortas were de-endothelialized before sectioning into rings by perfusion with phosphate buffered saline (PBS) containing 1% deoxycholate for 30 sec followed by a PBS and bubble rinse for 5 min. Rings were incubated in DME (Dulbecco's Modified Eagle's medium) supplemented with 1% fetal calf serum, 100 μg/ml streptomycin, and 100 U/ml penicillin. During incubation, the rings were exposed to combinations of LPS (10 or 35 ng/ml), H7 (25 μM), HA1004 (N-(2-guanidinoethyl)-5-isoquinolinesulfonamide) (25 μM), sphingosine (20 μM), or their vehicles. […] Rings used in measures of contractile performance were placed individually in Petri dishes containing 1.2 ml DME and were distributed so that tissue isolated from each aorta was allocated to every combination of treatments within an experiment. […] All tissue isolated from an aorta (six rings) was allocated to a single treatment. The media and rings were rotated gently for 16-18 hr in an incubator at 37° C. under a 95% O2 -5% CO2 atmosphere.
(§2) Measurement of aortic ring contraction. After incubation, rings were mounted in tissue baths, equilibrated, and pre-contracted as previously detailed (14). These procedures required approximately 90 min. Rings were maintained in Krebs Ringer Bicarbonate buffer (KRB, 14). Contractions by six or eight rings were measured simultaneously and recorded on multichannel strip chart recorders. […] Other rings were contracted by withdrawing KRB from the tissue baths and adding increasing volumes of a high KCl KRB (120 mM, made by equimolar substitution of KCl for NaCl) to the baths to yield final KCl concentrations of 10 to 80 mM. All rings were blotted and weighed after experiments were completed.
(§3) Statistics. […] Tests for differences between EC50 values were based on log EC50 values (17). EC50 values were then converted to […] means to allow expression as nanomolar concentrations. Examination of differences among four or six treatment means was by randomized blocks analysis of variance; if significant differences were present, then pairs of means were tested by Student-Newman-Keuls a posteriori tests (18). Paired t-tests were used to assess differences between two treatment means. […] Differences with probabilities of 0.05 or less were accepted as significant. All data are expressed as means±SEM.

[2] = tested on: cAMP dependent kinase; conditions: to an extent comparable to H7 (20); cited from earlier work
[3] = tested on: myosin light chain kinase; conditions: to an extent comparable to H7 (20); cited from earlier work
[4] = tested on: cGMP dependent kinase; conditions: to an extent comparable to H7 (20); cited from earlier work
[5] = tested on: intact endothelium rat aortic rings; test: KCl-induced contraction of intact rat aortic rings after 16 h incubation with LPS and/or PKC inhibitors; assay type: cell-based; conditions: for EC50: Rattus norvegicus, 16 h, intact endothelium, read-out: EC50 value for KCl stimulated contraction (EC50 of the agonist KCl)
Procedure: FIG. 2 is a graph showing contraction to cumulative doses of KCl by rat aortic rings incubated for 16 hr in combinations of control, LPS, H7, and HA1004 treated media. (Panel A) Response by rings incubated in medium only (open circles), medium plus H7 (25 μM, closed circles), medium containing LPS (10 ng/ml, open triangles), and medium containing LPS plus H7 (closed triangles). (Panel B) For clarity in presentation, responses by rings incubated in medium only (open circles) and LPS treated medium (open triangles) are reproduced from Panel A. Additional rings were incubated in medium plus HA1004 (25 μM, closed circles), and medium containing LPS plus HA1004 (closed triangles). Rings were prepared and data is presented as described in FIG. 1. N=6 rats.
as §1, §2, §3

[6] = tested on: de-endothelialized rat aortic rings; test: KCl-induced contraction of de-endothelialized rat aortic rings after 16 h incubation with LPS and/or sphingosine; assay type: cell-based; conditions: for EC50: Rattus norvegicus, 16 h, de-endothelialized, read-out: EC50 value for KCl stimulated contraction (EC50 of the agonist KCl)
Procedure: (§4) FIG. 3 is a graph showing contraction to cumulative doses of NE and KCl by rat de-endothelialized aortic rings incubated for 16 hr in combinations of control, LPS, and sphingosine treated media. (Panel A) Contraction to NE by rings incubated in medium only (open circles), medium plus sphingosine (20 μM, closed circles), medium containing LPS (35 ng/ml, open triangles), and medium containing LPS plus sphinogosine (closed triangles). (Panel B) Contraction to KCl by rings incubated and denoted with the same symbols as detailed above. Four rings were prepared from each rat and one ring allocated into each medium formulation to evaluate responses to NE. Rings were similarly prepared to determine responses to KCl. Data is presented as in FIG. 1. N=7 rats apiece for assessment of responses to NE and KCl.
as §1, §2
as §3, with “means±SEM. […]” for “means±SEM.”

[7] = stated without test or source; cited from earlier work
[8] = tested on: PKC; conditions: literature (19, 42); cited from earlier work
[9] = tested on: de-endothelialized rat aortic rings; test: NE-induced contraction of de-endothelialized rat aortic rings after 16 h incubation with LPS and/or sphingosine; assay type: cell-based; conditions: for EC50: Rattus norvegicus, 16 h, de-endothelialized, read-out: EC50 value for NE stimulated contraction (EC50 of the agonist NE)
Procedure: as §4, §1, §2, §3
The amelioration of LPS-induced vascular contractile dysfunction by inhibition of PKC was further explored in de-endothelialized aortic rings incubated with D-sphingosine. The de-endothelialized rings were incubated with 35 ng/ml LPS instead of 10 ng/ml because such rings are not as sensitive to LPS as tissue with an intact endothelium (14). The effective removal of the endothelium was confirmed by the lack of relaxation to acetylcholine by pre-contracted rings during the conditioning procedure.

[10] = LPS 10 ng/ml plus inhibitor 25 μM
[11] = LPS-treated media (10 ng/ml), alone or plus inhibitor 25 μM
[12] = control media (no LPS) plus inhibitor 25 μM
[13] = inhibitor 25 μM by itself, no LPS
[14] = LPS-treated media, alone or plus sphingosine 20 μM
[15] = control media (no LPS) plus sphingosine 20 μM
[16] = sphingosine 20 μM plus LPS 35 ng/ml

For `N=C(N)NCCNS(=O)(=O)c1cccc2cnccc12` [HA1004, N-(2-guanidinoethyl)-5-isoquinolinesulfonamide], which “EC50 and Emax (sensitivity and maximum contraction) to NE versus control tissue” value [1, 10] is on record?
The value was “significantly depressed sensitivity (Table I) and maximum contraction (FIG. 1B) to NE”.

And the EC50 [1, 11]?
Its EC50 is 0.00276 mM.

And the EC50 [1, 12]?
Its EC50 is 0.000186 mM.

What about the “blocking of LPS effects on contraction to NE” value ([1]; co-incubation, inhibitor 25 μM, LPS 10 ng/ml) of the same compound?
Its value is “ineffective in blocking the effects of LPS on the tissue”.

What about the “contractile function / sensitivity to NE” value [1, 13] of the same compound?
The value was “significant decrease in sensitivity to NE”.

And the “maximum contraction / ring responses to NE” value [1, 13]?
The value was “tended to suppress ring responses to NE; also recorded: apparent, but non-significant, diminution in maximum contraction”.

What about the “inhibition of cAMP dependent kinase” value [2] of the same compound?
The value was “inhibits”.

And the “inhibition of myosin light chain kinase” value [3]?
Its value is “inhibits”.

What about the “inhibition of cGMP dependent kinase” value [4] of the same compound?
The value was “inhibits”.

And the “protection of maximal contractile performance to KCl” value ([5]; LPS 10 ng/ml plus HA1004 25 μM)?
Its value is “small but significant protection of maximal contractile performance”.

What about the “protection against LPS-induced contractile dysfunction (KCl)” value [5, 10] of the same compound?
Its value is “did not protect the tissue against LPS-induced diminished sensitivity to KCl”.

And the EC50 [5, 11]?
Its EC50 is 49 mM.

What about the EC50 [5, 12] of the same compound?
The EC50 was 36 ± 3 mM.

And the “maximum contraction to KCl” value [5, 13]?
The value was “significant increases in maximum contraction; also recorded: augmented contractile responses to KCl”.

And the “sensitivity to KCl” value [5, 13]?
The value was “no enhancement in sensitivity to KCl”.

Which results are given for `CCCCCCCCCCCCC/C=C/[C@@H](O)[C@@H](N)CO` [Sphingosine, 4-trans-sphingenine]?
EC50 [6, 14]: 27 mM; EC50 [6, 15]: 24 ± 2 mM; contraction to KCl ([6]; sphingosine 20 μM only, no LPS): suppressed contractions to NE and KCl; also recorded: significantly diminished maximum contractions to NE and KCl; protection against LPS suppression of KCl-induced contraction [6, 16]: significantly protected; EC50 for KCl versus control rings ([6]; sphingosine 20 μM, whether or not LPS was present): not significantly different from control rings; solubility in water [7]: not soluble in water; inhibition of PKC [8]: capable of inhibiting PKC in vivo and in vitro; EC50 [9, 14]: 124 nM; EC50 [9, 15]: 21 nM; abrogation/prevention of LPS-induced contractile dysfunction ([9]; de-endothelialized rings, sphingosine 20 μM): clearly abrogated the majority of the deleterious effects of LPS on rat aortic tissue contractile function; also recorded: can be prevented; contraction to NE ([9]; sphingosine 20 μM only, no LPS): suppressed contractions to NE and KCl; also recorded: significantly diminished maximum contractions to NE and KCl; protection against LPS suppression of NE-induced contraction [9, 16]: significantly protected; sensitivity to NE versus control rings [9, 16]: remained less than that of control rings; sensitivity to NE versus rings exposed only to LPS ([9]; sphingosine 20 μM plus LPS 35 ng/ml, P<0.05): more sensitive to NE than rings exposed only to LPS
